The values that follow come from US7947688B2, “N-[3-(3-substituted-pyrazolo[1,5-a]pyrimidin-7-yl)phenyl]-sulfonamides, and compositions, and methods related thereto” (Ferrer Internacional, S.A., priority 2003, dated 2011).

Test [1] concerns male CD1 mice. As to the kind of experiment: Predictive sedation-hypnosis test in mice (motor activity, crossings). The conditions noted are these: single equimolecular intraperitoneal dose, crossings over 30 min after dosing (first 5 min discarded) versus control. The format is in vivo. The method, then: • In vivo determination of predictive sedative-hypnotic action.
The in vivo effects of these compounds were assessed by a predictive sedation-hypnosis test in mice (D. J. Sanger et al., Eur. J. Pharmacol., 313, 35-42, 1996; and G. Griebel et al., Psychopharmacology, 146, 205-213, 1999). Groups of 5-8 male CD1 mice, weighing 22-26 g at the time of test, were used. The test compounds were administered in single equimolecular intraperitoneal doses, suspended in 0.25% agar with one drop of Tween in a volume of 10 ml/kg. Control animals received the vehicle alone. Using an Actisystem DAS16 (Panlab, S. L., Spain) the crossings (number of counts) were recorded for each mouse at 5-min intervals during a period of 30 minutes after dosing. The inhibition percentage of crossings of treated animals versus control animals (the first 5 min were discarded) was calculated.

The target of test [2] is α2-GABAA receptor (Rattus norvegicus, UniProt P18508+P23576). As to the kind of experiment: Ligand-binding assay, radiolabeled flumazenil competition, rat spinal cord membranes. The conditions noted are these: for inhibition at 10 µM: read-out: % Inhibition (10^−5 M), affinity for α2-GABAA receptor; for inhibition at 0.1 µM: read-out: % Inhibition (10^−7 M), affinity for α2-GABAA receptor. The method, then:
Determination of the affinity of test compounds for α1- and α2-GABAA receptor.
Male Sprague-Dawley rats weighing 200-250 g at the time of experiment were used. After decapitation of the animal, the cerebellum (tissue that mostly contains α1-GABAA receptor) and spinal cord (tissue that mostly contains α2-GABAA receptor) were removed. The membranes were prepared according to the method by J. Lameh et al. (Prog. Neuro-Psychopharmacol. Biol. Psychiatry, 24, 979-991, 2000). Once the tissues weighed, they were suspended in 50 mM Tris.HCl (pH 7.7), 1:40 (v/v), homogenized and then centrifuged at 20000 g for 10 min at 7° C. The resulting pellet was resuspended under the same conditions and centrifuged again. The pellet was finally resuspended on a minimum volume and kept at −80° C. overnight. On the next day, the process was repeated until the final pellet was resuspended at a ratio of 1:10 (v/v).
Affinity was determined by competitive tests using radiolabeled flumazenil as ligand. The tests were performed according to the methods described by S. Arbilla et al. (Eur. J. Pharmacol., 130, 257-263, 1986); and Y. Wu et al. (Eur. J. Pharmacol., 278, 125-132, 1995). The membranes containing the study receptors, flumazenil (radiolabeling at a final concentration of 1 nM) and ascending concentrations of test compounds (in a total volume of 500 μl in […] [ph 7.4] Tris.HCl buffer) were incubated. Simultaneously, the membranes were only incubated with the radiolabeled flumazenil (total binding, 100%) and in the presence of an elevated concentration of unradiolabeled flumazenil (non-specific binding, % estimation of radiolabeled ligand). The reactions started on adding the radiolabeled ligand followed by incubation for 60 minutes at 0° C. At the end of the incubation period, the tubes were filtered using a Brandel Mod. M-48R harvester and then washed three times with cold test buffer. The harvester was fitted with a GF/B filter that retained the membranes containing the receptors and the radiolabeled ligand which had been bound to the receptors. Then the filters were removed and left till dry. Once dried, the filters were cut, placed in vials with scintillation liquid and left under stirring overnight. The next day the filters were counted using a Packard Mod. Tricarb scintillation counter.
X: amount of bound ligand for every concentration of compound.
T: total binding, maximum amount bound to the radiolabeled ligand.
N: non-specific binding, amount of radiolabeled ligand bound in a non-specific way irrespective of the receptor used.
Every concentrations of compound were tested in duplicate and their mean values were used to determine the experimental values of % specific binding versus the concentration of compound. […] Inhibition constants (Ki) were calculated from the IC50 values according to Cheng-Prusoff's formula (Y. Cheng y W. H. Prusoff, Biochem. Pharmacol., 22(23), 3099-3108, 1973).

Molecules are shown by their SMILES.

By inhibition is commonly meant how much of the control response was suppressed.

For `CCN(c1cccc(-c2ccnc3c(C(=O)c4ccccn4)cnn23)c1)S(C)(=O)=O` [Example 40, N-ethyl-N-{3-[3-(pyridin-2-carbonyl)-pyrazolo[1,5-a]pyrimidin-7-yl]-phenyl}-methanesulfonamide], in test [1], the “% Motor Activity Inhibition” value is given as 94.32%. In addition, in test [2], the inhibition at 10 µM worked out at 99.5% and the inhibition at 0.1 µM is 47.3%.
The like results for `CCN(c1cccc(-c2ccnc3c(C(=O)c4ccncc4)cnn23)c1)S(C)(=O)=O` [Example 46, N-ethyl-N-{3-[3-(pyridin-4-carbonyl)-pyrazolo[1,5-a]pyrimidin-7-yl]-phenyl}-methanesulfonamide] were, in that order, 93.98%, 97.6% and 11.9%.
For `CN(c1cccc(-c2ccnc3c(C(=O)c4ccc(F)cc4)cnn23)c1)S(C)(=O)=O` [Example 51, N-methyl-N-{3-[3-(fluorobenzene-4-carbonyl)-pyrazolo[1,5-a]pyrimidin-7-yl]-phenyl}-methanesulfonamide] the same measures were 90.04%, 94.7% and 16.8%.
For `CCN(c1cccc(-c2ccnc3c(C(=O)c4ccc(F)cc4)cnn23)c1)S(C)(=O)=O` [Example 52, N-ethyl-N-{3-[3-(fluorobenzene-4-carbonyl)-pyrazolo[1,5-a]pyrimidin-7-yl]-phenyl}-methanesulfonamide] the same measures were 92.83%, 61.2% and 0%.
`CCS(=O)(=O)N(C)c1cccc(-c2ccnc3c(C(=O)c4ccc(F)cc4)cnn23)c1` [Example 53, N-methyl-N-{3-[3-(fluorobenzene-4-carbonyl)-pyrazolo[1,5-a]pyrimidin-7-yl]-phenyl}-ethanesulfonamide]: in test [1], the “% Motor Activity Inhibition” value is given as 94.89%. For the same compound, in test [2], the inhibition at 10 µM was found to be 89.8% and the inhibition at 0.1 µM came out at 1%.
For `CCN(c1cccc(-c2ccnc3c(C(=O)c4ccc(OC)cc4)cnn23)c1)S(C)(=O)=O` [Example 58, N-ethyl-N-{3-[3-(4-methoxybenzoyl)-pyrazolo[1,5-a]pyrimidin-7-yl]-phenyl}-methanesulfonamide] the same measures were 93.31%, 93.8% and 24%.
For `Cc1ccc(C(=O)c2cnn3c(-c4cccc(N(C)S(C)(=O)=O)c4)ccnc23)cc1` [Example 63, N-methyl-N-{3-[3-(4-methylbenzoyl)-pyrazolo[1,5-a]pyrimidin-7-yl]-phenyl}-methanesulfonamide] the same measures were 95.32%, 91.3% and 0%.
The like results for `CCN(c1cccc(-c2ccnc3c(C(=O)c4ccc(C)cc4)cnn23)c1)S(C)(=O)=O` [Example 64, N-ethyl-N-{3-[3-(4-methylbenzoyl)-pyrazolo[1,5-a]pyrimidin-7-yl]-phenyl}-methanesulfonamide] were, in that order, 90.32%, 61.5% and 20.9%.
Turning to `C#CCN(c1cccc(-c2ccnc3c(C(=O)c4ccc(C)cc4)cnn23)c1)S(C)(=O)=O` [Example 68, N-2-propynyl-N-{3-[3-(4-methylbenzoyl)-pyrazolo[1,5-a]pyrimidin-7-yl]-phenyl}-methanesulfonamide], the “% Motor Activity Inhibition” value in test [1] is 87.78%. Further, in test [2], the inhibition at 10 µM was found to be 92.7% and the inhibition at 0.1 µM worked out at 31.6%.
The like results for `CN(c1cccc(-c2ccnc3c(C(=O)c4ccccc4)cnn23)c1)S(C)(=O)=O` [Example 69, N-methyl-N-{3-[3-(benzoyl)-pyrazolo[1,5-a]pyrimidin-7-yl]-phenyl}-methanesulfonamide] were, in that order, 96.90%, 99% and 36.7%.
On to `CCN(c1cccc(-c2ccnc3c(C(=O)c4ccccc4)cnn23)c1)S(C)(=O)=O` [Example 70, N-ethyl-N-{3-[3-(benzoyl)-pyrazolo[1,5-a]pyrimidin-7-yl]-phenyl}-methanesulfonamide], for which, in test [1], the “% Motor Activity Inhibition” value was 94.54%. Also, in test [2], the inhibition at 10 µM was 99.9% and the inhibition at 0.1 µM stood at 63.4%.
The like results for `CCN(c1cccc(-c2ccnc3c(C(=O)c4ccccc4)cnn23)c1)S(=O)(=O)CC` [Example 72, N-ethyl-N-{3-[3-(benzoyl)-pyrazolo[1,5-a]pyrimidin-7-yl]-phenyl}-ethanesulfonamide] were, in that order, 93.78%, 98.6% and 44.9%.
The like results for `CN(c1cccc(-c2ccnc3c(C(=O)c4cccs4)cnn23)c1)S(=O)(=O)CC(F)(F)F` [Example 76, N-methyl-N-{3-[3-(thiophene-2-carbonyl)-pyrazolo[1,5-a]pyrimidin-7-yl]-phenyl}-2,2,2-trifluoroethane-sulfonamide] were, in that order, 78.36%, 41.7% and 0%.
The like results for `CN(c1cccc(-c2ccnc3c(C(=O)c4cccs4)cnn23)c1)S(=O)(=O)c1ccccc1Cl` [Example 77, N-methyl-N-{3-[3-(thiophene-2-carbonyl)-pyrazolo[1,5-a]pyrimidin-7-yl]-phenyl}-2-chlorobenzene-sulfonamide] were, in that order, 70.12%, 88.5% and 13.8%.
`CN(c1cccc(-c2ccnc3c(C(=O)c4cccs4)cnn23)c1)S(=O)(=O)c1cccc(Cl)c1` [Example 78, N-methyl-N-{3-[3-(thiophene-2-carbonyl)-pyrazolo[1,5-a]pyrimidin-7-yl]-phenyl}-3-chlorobenzenesulfonamide]: the “% Motor Activity Inhibition” value in test [1] is listed as 36.12%. For the same compound, in test [2], the inhibition at 10 µM is 36.2% and the inhibition at 0.1 µM is 0%.
For `CN(c1cccc(-c2ccnc3c(C(=O)c4cccs4)cnn23)c1)S(=O)(=O)c1ccc(Cl)cc1` [Example 79, N-methyl-N-{3-[3-(thiophene-2-carbonyl)-pyrazolo[1,5-a]pyrimidin-7-yl]-phenyl}-4-chlorobenzenesulfonamide] the same measures were 51.50%, 52.9% and 0%.
For `CN(c1cccc(-c2ccnc3c(C(=O)c4cccs4)cnn23)c1)S(=O)(=O)c1ccccc1C#N` [Example 82, N-methyl-N-{3-[3-(thiophene-2-carbonyl)-pyrazolo[1,5-a]pyrimidin-7-yl]-phenyl}-2-cyanobenzene-sulfonamide] the same measures were 39.87%, 31.8% and 0%.
The like results for `CN(c1cccc(-c2ccnc3c(C(=O)c4cccs4)cnn23)c1)S(=O)(=O)c1cccc(C#N)c1` [Example 83, N-methyl-N-{3-[3-(thiophene-2-carbonyl)-pyrazolo[1,5-a]pyrimidin-7-yl]-phenyl}-3-cyanobenzene-sulfonamide] were, in that order, 53.38%, 94.4% and 39.1%.
`CN(c1cccc(-c2ccnc3c(C(=O)c4cccs4)cnn23)c1)S(=O)(=O)c1ccc(C#N)cc1` [Example 84, N-methyl-N-{3-[3-(thiophene-2-carbonyl)-pyrazolo[1,5-a]pyrimidin-7-yl]-phenyl}-4-cyanobenzene-sulfonamide]: the “% Motor Activity Inhibition” value in test [1] is recorded as 68.98%. Also, in test [2], the inhibition at 10 µM was found to be 89.5% and the inhibition at 0.1 µM was 0%.
